Measurements published in patent US20230278966A1, “TRIAZOLONE COMPOUNDS FOR CONTROLLING INVERTEBRATE PESTS” (FMC Corporation, priority 2020, published 2023).

Test system: Root Knot Nematodes
Assay: Nematicide assay: control of Root Knot Nematode galling on host plant roots
Assay type: in vivo
Conditions: drip application, 4-day-old host plant, assessed after 8 days; for pest or weed control at 500 ppm / pest or weed control at 100 ppm: 192 h, read-out: control efficacy (decrease of nematode gall formation on roots compared to the inoculated control)
Description: Test compounds were formulated using a solution containing 25% acetone and 75% water. The formulated compounds were applied in 330 μl of liquid through a drip applicator that was positioned above the top of each test unit. Test compounds were applied at 500 ppm and 100 ppm and each test was replicated three times. For evaluating control of Root Knot Nematodes the test unit consisted of a small open container with a 4-day-old host plant inside. The formulated compounds were dripped into the container and the nematodes were applied following the compound's application. The test units were held for 8 days in a growth chamber at 29.4° C. or 85 F. Root invasion by the nematodes was then visually assessed based on presence or absence of galls on the roots.

`O=C(NCCn1nc(C(F)(F)F)n(CC(F)(F)F)c1=O)c1ccccc1C(F)(F)F` [Compound 1] was tested, and the pest or weed control at 500 ppm (500 ppm) was 100%.

Work on `O=C(NCCn1nc(C(F)(F)F)n(C2CC2)c1=O)c1ccccc1C(F)(F)F` [Compound 2] yielded a pest or weed control at 500 ppm (500 ppm) of 100%.

Work on `CC(C)n1c(C(F)F)nn(CCNC(=O)c2ccccc2C(F)(F)F)c1=O` [Compound 9] yielded a pest or weed control at 500 ppm (500 ppm) of 100%.

Work on `CC(C)(C)n1c(C(F)(F)F)nn(CCNC(=O)c2ccccc2C(F)(F)F)c1=O` [Compound 10, N-[2-[4-(1,1-Dimethylethyl)-4,5-dihydro-5-oxo-3-(trifluoromethyl)-1H-1,2,4-triazol-1-yl]ethyl]-2-(trifluoromethyl)benzamide] yielded a pest or weed control at 500 ppm (500 ppm) of 100%.

`CC(C)n1c(C(F)(F)F)nn(CCNC(=O)c2ccccc2C(F)(F)F)c1=O` [Compound 11] was tested, and the pest or weed control at 500 ppm (500 ppm) was 100%.

With `CCn1c(C(F)(F)F)nn(CCNC(=O)c2ccccc2C(F)(F)F)c1=O` [Compound 12] the pest or weed control at 500 ppm (500 ppm) was 100%.

For `Cn1c(C(F)(F)F)nn(CCNC(=O)c2ccccc2C(F)(F)F)c1=O` [Compound 14, N-[2-[4,5-Dihydro-4-methyl-5-oxo-3-(trifluoromethyl)-1H-1,2,4-triazol-1-yl]ethyl]-2-(trifluoromethyl)benzamide], the pest or weed control at 500 ppm (500 ppm) was 100%.

`O=C(NCCn1nc(C(F)(F)F)n(CC(F)(F)F)c1=O)c1ccccc1Cl` [Compound 30] was tested, and the pest or weed control at 500 ppm (500 ppm) was 100%.

Compound `CC(C)n1c(C(F)(F)F)nn(CCNC(=O)c2ccccc2Cl)c1=O` [Compound 31] has a pest or weed control at 500 ppm (500 ppm) of 100%.

`O=C(NCCn1nc(C(F)(F)F)n(CC2CC2)c1=O)c1ccccc1C(F)(F)F` [Compound 32, N-[2-[4-(Cyclopropylmethyl)-4,5-dihydro-5-oxo-3-(trifluoromethyl)-1H-1,2,4-triazol-1-yl]ethyl]-2-(trifluoromethyl)benzamide] showed a pest or weed control at 500 ppm (500 ppm) of 100%.

`CC(C)(C)n1c(C(F)(F)F)nn(CCNC(=O)c2ccccc2Cl)c1=O` [Compound 38, 2-Chloro-N-[2-[4-(1,1-dimethylethyl)-4,5-dihydro-5-oxo-3-(trifluoromethyl)-1H-1,2,4-triazol-1-yl]ethyl]benzamide] gave a pest or weed control at 500 ppm (500 ppm) of 100%.

`CC1(n2c(C(F)(F)F)nn(CCNC(=O)c3ccccc3C(F)(F)F)c2=O)CC1` [Compound 45] gave a pest or weed control at 500 ppm (500 ppm) of 100%.

`CC(C)(C)n1c(C(F)(F)F)nn(CCNC(=O)c2ccccc2Br)c1=O` [Compound 50, 2-Bromo-N-[2-[4-(1,1-dimethylethyl)-4,5-dihydro-5-oxo-3-(trifluoromethyl)-1H-1,2,4-triazol-1-yl]ethyl]benzamide] showed a pest or weed control at 500 ppm (500 ppm) of 100%.

`O=C(NCCn1nc(C(F)(F)F)n(C2CC2)c1=O)c1ccccc1Cl` [Compound 59] showed a pest or weed control at 500 ppm (500 ppm) of 100%.

For `CC(C)(C)n1c(C(F)(F)F)nn(CCNC(=O)c2cccnc2Cl)c1=O` [Compound 92, 2-Chloro-N-[2-[4-(1,1-dimethylethyl)-4,5-dihydro-5-oxo-3-(trifluoromethyl)-1H-1,2,4-triazol-1-yl]ethyl]-3-pyridinecarboxamide], the pest or weed control at 100 ppm (100 ppm) was 100% and the pest or weed control at 500 ppm (500 ppm) was 100%.

`CC(C)(C)n1c(C(F)(F)F)nn(CCNC(=O)c2cccnc2C(F)(F)F)c1=O` [Compound 93] was tested, and the pest or weed control at 500 ppm (500 ppm) was 100%.

With `CC(C)(C)n1c(C(F)(F)F)nn(CCNC(=O)c2c(F)cccc2C(F)(F)F)c1=O` [Compound 128] the “control efficacy (decrease of nematode gall formation on roots compared to the inoculated control)” value (500 ppm) was 100%.

`CC(C)(n1c(C(F)(F)F)nn(CCNC(=O)c2ccccc2Br)c1=O)C(F)(F)F` [Compound 133] was tested, and the “control efficacy (decrease of nematode gall formation on roots compared to the inoculated control)” value (100 ppm) was 100% and the “control efficacy (decrease of nematode gall formation on roots compared to the inoculated control)” value (500 ppm) was 100%.

With `Cc1ccccc1C(=O)NCCn1nc(C(F)(F)F)n(C(C)(C)C(F)(F)F)c1=O` [Compound 135] the “control efficacy (decrease of nematode gall formation on roots compared to the inoculated control)” value (500 ppm) was 100%.

With `O=C(NCCn1nc(C(F)(F)F)n(C2(C(F)(F)F)CCC2)c1=O)c1ccccc1C(F)(F)F` [Compound 139] the “control efficacy (decrease of nematode gall formation on roots compared to the inoculated control)” value (500 ppm) was 100%.

With `O=C(NCCn1nc(C(F)(F)F)n(C2(C(F)(F)F)CCC2)c1=O)c1ccccc1Br` [Compound 142] the “control efficacy (decrease of nematode gall formation on roots compared to the inoculated control)” value (500 ppm) was 100%.

With `O=C(NCCn1nc(C(F)(F)F)n(C2CC(F)(F)C2)c1=O)c1ccccc1Br` [Compound 143] the “control efficacy (decrease of nematode gall formation on roots compared to the inoculated control)” value (500 ppm) was 100%.

With `O=C(NCCn1nc(C(F)(F)F)n(C2CC(F)(F)C2)c1=O)c1ccccc1C(F)(F)F` [Compound 145] the “control efficacy (decrease of nematode gall formation on roots compared to the inoculated control)” value (100 ppm) was 100% and the “control efficacy (decrease of nematode gall formation on roots compared to the inoculated control)” value (500 ppm) was 100%.

In the case of `O=C(NCCn1nc(C(F)(F)F)n(C2CC(F)(F)C2)c1=O)c1ccccc1Cl` [Compound 148], the “control efficacy (decrease of nematode gall formation on roots compared to the inoculated control)” value (100 ppm) is reported as 100% and the “control efficacy (decrease of nematode gall formation on roots compared to the inoculated control)” value (500 ppm) is reported as 100%.

For `O=C(NCCn1nc(C(F)(F)F)n(C2(C(F)(F)F)CCC2)c1=O)c1ccccc1Cl` [Compound 149], the “control efficacy (decrease of nematode gall formation on roots compared to the inoculated control)” value (500 ppm) was 100%.

For `CC(C)(n1c(C(F)(F)F)nn(CCNC(=O)c2ncccc2C(F)(F)F)c1=O)C(F)(F)F` [Compound 160], the “control efficacy (decrease of nematode gall formation on roots compared to the inoculated control)” value (500 ppm) was 100%.

For `CC(C)(n1c(C(F)(F)F)nn(CCNC(=O)c2cccnc2C(F)(F)F)c1=O)C(F)(F)F` [Compound 165], the “control efficacy (decrease of nematode gall formation on roots compared to the inoculated control)” value (100 ppm) was 100% and the “control efficacy (decrease of nematode gall formation on roots compared to the inoculated control)” value (500 ppm) was 100%.

For `CC(n1c(C(F)(F)F)nn(CCNC(=O)c2cccnc2Cl)c1=O)C(F)(F)F` (centres unmarked) [Compound 166], the “control efficacy (decrease of nematode gall formation on roots compared to the inoculated control)” value (500 ppm) was 100%.

In the case of `O=C(NCCn1nc(C(F)(F)F)n(C2(C(F)(F)F)CCC2)c1=O)c1cccnc1C(F)(F)F` [Compound 169], the pest or weed control at 500 ppm (500 ppm) is reported as 100%.

`O=C(NCCn1nc(C(F)(F)F)n(C2(C(F)(F)F)CCC2)c1=O)c1cccnc1Cl` [Compound 170] was tested, and the pest or weed control at 500 ppm (500 ppm) was 100%.

In the case of `CC(C)(n1c(C(F)(F)F)nn(CCNC(=O)c2cccnc2Cl)c1=O)C(F)(F)F` [Compound 171], the “control efficacy (decrease of nematode gall formation on roots compared to the inoculated control)” value (100 ppm) is reported as 100% and the “control efficacy (decrease of nematode gall formation on roots compared to the inoculated control)” value (500 ppm) is reported as 100%.

`O=C(NCCn1nc(C(F)(F)F)n(C2CC(F)(F)C2)c1=O)c1cccnc1C(F)(F)F` [Compound 173] gave a pest or weed control at 500 ppm (500 ppm) of 100%.

`CC(n1c(C(F)(F)F)nn(CCNC(=O)c2cccnc2C(F)(F)F)c1=O)C(F)(F)F` (centres unmarked) [Compound 175] was tested, and the “control efficacy (decrease of nematode gall formation on roots compared to the inoculated control)” value (500 ppm) was 100%.

With `CC(C)(n1c(C(F)(F)F)nn(CCNC(=O)c2ccccc2C(F)(F)F)c1=O)C(F)(F)F` [Compound 179, N-[2-[4,5-Dihydro-5-oxo-4-(2,2,2-trifluoro-1,1-dimethylethyl)-3-(trifluoromethyl)-1H-1,2,4-triazol-1-yl]ethyl]-2-(trifluoromethyl)benzamide] the pest or weed control at 100 ppm (100 ppm) was 100% and the pest or weed control at 500 ppm (500 ppm) was 100%.
